Test results as given in ChEMBL document CHEMBL5154671 (Eur J Med Chem, 2022).
Active and inactive are the calls of the source. The rule behind the calls is not given here.

Tests used:
[1] = molecular target: Free fatty acid receptor 1 (Homo sapiens, UniProt O14842); experiment: Agonist activity at human FFA1 expressed in CHO cells measured by FLIPR assay; assay type: functional, cell-based
[2] = molecular target: T1, Peroxisome proliferator-activated receptor alpha (Homo sapiens, UniProt Q07869); experiment: Agonist activity at human PPARalpha measured by dual luciferase reporter gene assay
T1 sequence (Q07869 whole entry): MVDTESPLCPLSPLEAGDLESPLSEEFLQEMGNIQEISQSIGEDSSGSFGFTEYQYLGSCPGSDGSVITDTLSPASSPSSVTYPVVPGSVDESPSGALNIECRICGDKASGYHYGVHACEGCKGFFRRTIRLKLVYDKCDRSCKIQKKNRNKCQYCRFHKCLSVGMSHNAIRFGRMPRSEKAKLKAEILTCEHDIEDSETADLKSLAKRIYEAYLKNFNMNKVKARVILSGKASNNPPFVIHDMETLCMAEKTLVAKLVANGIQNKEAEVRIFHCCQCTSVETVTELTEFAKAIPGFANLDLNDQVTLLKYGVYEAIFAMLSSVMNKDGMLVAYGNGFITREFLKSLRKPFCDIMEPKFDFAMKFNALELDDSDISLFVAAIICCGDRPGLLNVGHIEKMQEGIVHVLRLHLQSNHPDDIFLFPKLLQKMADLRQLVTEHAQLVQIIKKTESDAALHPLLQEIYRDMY

[3] = molecular target: T2, Peroxisome proliferator-activated receptor delta (Homo sapiens, UniProt Q03181); experiment: Agonist activity at human PPARdelta measured by dual luciferase reporter gene assay
T2 sequence (Q03181 whole entry): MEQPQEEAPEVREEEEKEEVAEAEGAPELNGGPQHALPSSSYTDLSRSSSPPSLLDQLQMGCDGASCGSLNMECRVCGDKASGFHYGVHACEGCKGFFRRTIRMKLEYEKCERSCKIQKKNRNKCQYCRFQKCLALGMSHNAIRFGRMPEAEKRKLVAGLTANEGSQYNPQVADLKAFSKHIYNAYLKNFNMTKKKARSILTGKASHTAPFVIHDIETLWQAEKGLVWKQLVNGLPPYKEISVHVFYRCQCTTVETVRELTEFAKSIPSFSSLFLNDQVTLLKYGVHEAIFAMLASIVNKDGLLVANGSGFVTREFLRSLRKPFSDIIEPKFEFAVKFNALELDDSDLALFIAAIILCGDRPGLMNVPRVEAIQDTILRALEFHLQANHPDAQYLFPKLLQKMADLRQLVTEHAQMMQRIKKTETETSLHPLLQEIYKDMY

Mus musculus [4] = experiment: Hypolipidemic activity in Triton1339W-induced hyperlipidemic ICR mouse model assessed as reduction in plasma TC level at 80 mg/kg, administered once daily for 5 days; assay type: functional, organism-based; conditions: time 5.0 day
[5] = Clearance in rat liver microsomes in presence of NADPH measured by LC/MS analysis; assay type: ADME, Microsome; conditions: read-out: CLH
[6] = Half-life in rat liver microsomes in presence of NADPH measured by LC/MS analysis; assay type: ADME, Microsome
Mus musculus [7] = experiment: Anti-NASH activity in high-fat/high-sugar diet and CCl4-induced nonalcoholic steatohepatitis male C57BL/6 mouse assessed as decrease in serum TG level at 100 mg/kg, po administered for 4 weeks; assay type: functional, organism-based
Mus musculus [8] = experiment: Anti-NASH activity in high-fat/high-sugar diet and CCl4-induced nonalcoholic steatohepatitis male C57BL/6 mouse assessed as decrease in hepatic TC level at 100 mg/kg, po administered for 4 weeks; assay type: functional, organism-based
Mus musculus [9] = experiment: Anti-NASH activity in high-fat/high-sugar diet and CCl4-induced nonalcoholic steatohepatitis male C57BL/6 mouse assessed as decrease in hepatic TG level at 100 mg/kg, po administered for 4 weeks; assay type: functional, organism-based
Mus musculus [10] = experiment: Anti-NASH activity in high-fat/high-sugar diet and CCl4-induced nonalcoholic steatohepatitis male C57BL/6 mouse assessed as decrease in F4/80 expression at 100 mg/kg, po administered for 4 weeks; assay type: functional, organism-based
Mus musculus [11] = experiment: Protection against liver fibrosis in high-fat/high-sugar diet and CCl4-induced nonalcoholic steatohepatitis male C57BL/6 mouse assessed as decrease in collagen area at 100 mg/kg, po administered for 4 weeks; assay type: functional, organism-based
Mus musculus [12] = experiment: Protection against liver fibrosis in high-fat/high-sugar diet and CCl4-induced nonalcoholic steatohepatitis male C57BL/6 mouse assessed as decrease in alpha-SMA expression in liver at 100 mg/kg, po administered for 4 weeks; assay type: functional, organism-based
Mus musculus [13] = experiment: Anti-NASH activity in high-fat/high-sugar diet and CCl4-induced nonalcoholic steatohepatitis male C57BL/6 mouse assessed as decrease in SCD1 mRNA expression at 100 mg/kg, po administered for 4 weeks; assay type: functional, organism-based
Mus musculus [14] = experiment: Anti-NASH activity in high-fat/high-sugar diet and CCl4-induced nonalcoholic steatohepatitis male C57BL/6 mouse assessed as decrease in FAS mRNA expression at 100 mg/kg, po administered for 4 weeks; assay type: functional, organism-based
Mus musculus [15] = experiment: Anti-NASH activity in high-fat/high-sugar diet and CCl4-induced nonalcoholic steatohepatitis male C57BL/6 mouse assessed as decrease in SREBP-1C mRNA expression at 100 mg/kg, po administered for 4 weeks; assay type: functional, organism-based
Mus musculus [16] = experiment: Anti-inflammatory activity in high-fat/high-sugar diet and CCl4-induced nonalcoholic steatohepatitis male C57BL/6 mouse assessed as decrease in IL-6 mRNA expression at 100 mg/kg, po administered for 4 weeks; assay type: functional, organism-based
Mus musculus [17] = experiment: Anti-inflammatory activity in high-fat/high-sugar diet and CCl4-induced nonalcoholic steatohepatitis male C57BL/6 mouse assessed as decrease in IL-1beta mRNA expression at 100 mg/kg, po administered for 4 weeks; assay type: functional, organism-based
Mus musculus [18] = experiment: Anti-fibrotic activity in high-fat/high-sugar diet and CCl4-induced nonalcoholic steatohepatitis male C57BL/6 mouse assessed as decrease in TGF-beta mRNA expression at 100 mg/kg, po administered for 4 weeks; assay type: functional, organism-based
Mus musculus [19] = experiment: Anti-fibrotic activity in high-fat/high-sugar diet and CCl4-induced nonalcoholic steatohepatitis male C57BL/6 mouse assessed as decrease in COL1A1 mRNA expression at 100 mg/kg, po administered for 4 weeks; assay type: functional, organism-based
Mus musculus [20] = experiment: Antioxidant activity in high-fat/high-sugar diet and CCl4-induced nonalcoholic steatohepatitis male C57BL/6 mouse assessed as increase in catalase mRNA expression at 100 mg/kg, po administered for 4 weeks; assay type: functional, organism-based
Mus musculus [21] = experiment: Antioxidant activity in high-fat/high-sugar diet and CCl4-induced nonalcoholic steatohepatitis male C57BL/6 mouse assessed as increase in GPX1 mRNA expression at 100 mg/kg, po administered for 4 weeks; assay type: functional, organism-based
Mus musculus [22] = experiment: Protection against CCl4-induced liver fibrosis in male C57BL/6 mouse assessed as decrease in hepatic hydroxyproline content at 100 mg/kg […]; assay type: functional, organism-based
[23] = Acute toxicity in ICR mouse assessed as change in serum AST level at 500 mg/kg, IG; assay type: organism-based; conditions: in vivo, po
[24] = Acute toxicity in ICR mouse assessed as change in serum urea level at 500 mg/kg, IG; assay type: organism-based; conditions: in vivo, po
[25] = Acute toxicity in ICR mouse assessed as change in serum creatinine level at 500 mg/kg, IG; assay type: organism-based; conditions: in vivo, po
[26] = Acute toxicity in ICR mouse assessed as change in serum CKMB level at 500 mg/kg, IG; assay type: organism-based; conditions: in vivo, po

Sequence of Free fatty acid receptor 1 (O14842 whole entry): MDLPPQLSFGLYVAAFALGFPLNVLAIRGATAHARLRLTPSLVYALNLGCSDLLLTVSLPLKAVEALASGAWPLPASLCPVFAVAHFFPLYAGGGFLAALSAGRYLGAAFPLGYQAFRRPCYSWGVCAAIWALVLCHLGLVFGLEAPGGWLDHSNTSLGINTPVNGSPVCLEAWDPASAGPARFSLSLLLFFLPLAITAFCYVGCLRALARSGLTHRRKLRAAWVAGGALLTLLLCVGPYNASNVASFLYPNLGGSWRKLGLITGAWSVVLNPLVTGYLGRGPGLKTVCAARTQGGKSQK

## COc1ccc(/C=C/c2cc(OC)cc(OCc3ccc(OCC(=O)O)c(F)c3)c2)cc1
[1]
  EC50: 1.5 µM
[2]
  EC50: 8.5 µM
[3]
  EC50: 4.8 µM
Mus musculus [4]
  Activity: Active
[5]
  microsomal CLint: 27.1 µL/min/mg
[6]
  half-life: 51.2 min
Mus musculus [7]
  Activity: Active
Mus musculus [8]
  Activity: Active
Mus musculus [9]
  Activity: Active
Mus musculus [10]
  Activity: Active
Mus musculus [11]
  Activity: Active
Mus musculus [12]
  Activity: Active
Mus musculus [13]
  Activity: Active
Mus musculus [14]
  Activity: Active
Mus musculus [15]
  Activity: Active
Mus musculus [16]
  Activity: Active
Mus musculus [17]
  Activity: Active
Mus musculus [18]
  Activity: Active
Mus musculus [19]
  Activity: Active
Mus musculus [20]
  Activity: Active
Mus musculus [21]
  Activity: Active
Mus musculus [22]
  Activity: Active
[23]
  Activity: Non-Toxic
[24]
  Activity: Non-Toxic
[25]
  Activity: Non-Toxic
[26]
  Activity: Non-Toxic
